The record followed here is US9670204B2, “Compounds and pharmaceutical compositions thereof for the treatment of inflammatory disorders” (Galapagos NV, priority 2013, dated 2017).

By IC50 is commonly meant the concentration at which inhibition is half-maximal.

In one assay the test system is LPA 18:2 in rat plasma. Kind of assay: Rat whole blood (plasma) LPA assay. The class given is biochemical. As to conditions: 2 h at 37 C, LPA 18:2 by LC-MS/MS. Here is the method:
Whole blood is collected from rats or mouse by exsanguinations on sodium heparin tube, then after centrifugation at 3000 rpm for 15 min at 4° C., plasma is stored at −80° C. Compounds are diluted in DMSO in concentration dependent manner then 0.5 μL are dispensed into 96-well plate placed in ice. Plasma is defrosted on ice then 49.5 μL of plasma are added into the well containing 0.5 μL of compound (1% DMSO final). Plates are covered with a lid in polypropylene and incubated at +37° C., 5% CO2, for 2 h under gentle shaking (except controls which are stored at −20° C.).
At the end of the incubation, controls are defrosted in ice and transferred in the incubated plates for LC-MS/MS analysis with a non GLP-validated method. For the analysis, plasma proteins from a 10 μL incubated plates are precipitated with an excess of methanol containing the internal standard, LPA 17:0. After centrifugation, the corresponding supernatant is injected on a C18 column. Analytes are eluted out of the column under isocratic conditions. An API5500 QTRAP mass spectrometer (ABSciex™) is used for the detection of LPA 18:2. No calibration curve is prepared for LPA 18:2, however relative quantities are evaluated based on the peak area.

Assay [1] deals with T1, hENPP2 (UniProtKB/SwissProt Q13822) (Homo sapiens (Human), UniProt Q13822). Kind of assay: fluorescent hENPP2 biochemical assay, FS-3 as substrate. As to conditions: read-out: FS3-IC50. The gist of the method:
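hENPP2 in 50 mM Tris-HCl pH 8.0, 250 mM NaCl, 5 mM KCl, 1 mM MgCl2, 1 mM CaCl2, 0.1% fatty-acid-free BSA, preincubated with compound 30 min at room temperature. The 0.75 μM FS-3 solution was added and the mixture incubated 30 min at 30° C. Fluorescence (ex 485/em 520 nm) gives IC50.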

The target in assay [2] is T1, hENPP2. Kind of assay: hENPP2 biochemical assay, LPC as substrate. As to conditions: LPC (palmitoyl 16:0) as substrate. The gist of the method: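 Human ENPP2 in 50 mM Tris-HCl pH 8.5, 500 mM NaCl, 5 mM KCl, 10 mM CaCl2, 0.1% fatty-acid-free BSA, reacted 30 min at 37 °C with LPC 16:0 (150 µM solution added 1:1). Released choline measured via choline oxidase/peroxidase/TOOS/4-aminoantipyrine quinoneimine dye at 555 nm; IC50 reported.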

With `CCc1nc2ccc(C3CCN(CC(=O)N4CC[C@H](O)C4)CC3)cn2c1N(C)c1nc(-c2ccc(F)cc2)cs1` [Compound 112, (S)-2-(4-(2-ethyl-3-((4-(4-fluorophenyl)thiazol-2-yl)(methyl)amino)imidazo[1,2-a]pyridin-6-yl)piperidin-1-yl)-1-(3-hydroxypyrrolidin-1-yl)ethanone], the figures for the IC50 in the assay with LPA 18:2 in rat plasma, on hENPP2 [1] and against hENPP2 [2] were 100 to 500 nM, 0.01 to 100 nM and 100 to 500 nM, respectively.

In the case of `CCc1nc2ccc(C3CCN(S(=O)(=O)CCCO)CC3)cn2c1N(C)c1nc(-c2ccc(F)cc2)c(F)s1` [Compound 95, 3-[4-(2-Ethyl-3-{[5-fluoro-4-(4-fluoro-phenyl)-thiazol-2-yl]-methyl-amino}-imidazo[1,2-a]pyridin-6-yl)-piperidine-1-sulfonyl]-propan-1-ol], the IC50 in the assay with LPA 18:2 in rat plasma is 100 to 500 nM; at hENPP2 [1], 0.01 to 100 nM; against hENPP2 [2] it was more than 1000 nM.

In the case of `CCc1nc2ccc(C3CCN(CC(=O)N4CC(O)C4)CC3)cn2c1N(C)c1nc(-c2ccc(F)cc2)c(C#N)s1` [Compound 141, 2-((2-ethyl-6-(1-(2-(3-hydroxyazetidin-1-yl)-2-oxoethyl)piperidin-4-yl)imidazo[1,2-a]pyridin-3-yl)(methyl)amino)-4-(4-fluorophenyl)thiazole-5-carbonitrile], the IC50 in the assay on LPA 18:2 in rat plasma, at hENPP2 [1] and at hENPP2 [2] was 0.01 to 100 nM in each case.

Regarding `CCc1nc2ccc(C3CCN(CC(=O)N4CC(O)C4)CC3)cn2c1N(C)c1nc(-c2ccc(F)cc2C#N)ns1` [Compound 173, 2-(5-((2-ethyl-6-(1-(2-(3-hydroxyazetidin-1-yl)-2-oxoethyl)piperidin-4-yl)imidazo[1,2-a]pyridin-3-yl)(methyl)amino)-1,2,4-thiadiazol-3-yl)-5-fluorobenzonitrile], the concentration for half-maximal inhibition (IC50) with LPA 18:2 in rat plasma lay within 100 to 500 nM; on hENPP2 [1], 0.01 to 100 nM; at hENPP2 [2], 0.01 to 100 nM.

On to `CCc1nc2ccc(C3CCN(CC(=O)N4CC(O)C4)CC3)cn2c1N(C)c1nc(-c2ccc(F)cc2C#N)cs1` [Compound 170, 2-(2-((2-ethyl-6-(1-(2-(3-hydroxyazetidin-1-yl)-2-oxoethyl)piperidin-4-yl)imidazo[1,2-a]pyridin-3-yl)(methyl)amino)thiazol-4-yl)-5-fluorobenzonitrile], for which the IC50 in the assay on LPA 18:2 in rat plasma lay in the range of 100 to 500 nM; at hENPP2 [1], 0.01 to 100 nM; on hENPP2 [2], 0.01 to 100 nM.

With `CCc1nc2ccc(N3CCN(Cc4cnc[nH]4)CC3)cn2c1N(C)c1nc(-c2ccc(F)cc2)cs1` [Compound 192, N-(6-(4-((1H-imidazol-5-yl)methyl)piperazin-1-yl)-2-ethylimidazo[1,2-a]pyridin-3-yl)-4-(4-fluorophenyl)-N-methylthiazol-2-amine], the figures for the IC50 in the assay with LPA 18:2 in rat plasma, on hENPP2 [1] and at hENPP2 [2] were more than 1000 nM, 0.01 to 100 nM and 500 to 1000 nM, respectively.

Turning to `CCc1nc2ccc(C3CCN(S(C)(=O)=O)CC3)cn2c1N(C)c1nc(-c2ccc(F)cc2)c(C(=O)C(F)(F)F)s1` [Compound 160, 1-(2-((2-ethyl-6-(1-(methylsulfonyl)piperidin-4-yl)imidazo[1,2-a]pyridin-3-yl)(methyl)amino)-4-(4-fluorophenyl)thiazol-5-yl)-2,2,2-trifluoroethanone], the half-maximal inhibitory concentration (IC50) with LPA 18:2 in rat plasma lay within 0.01 to 100 nM; at hENPP2 [1] it was 0.01 to 100 nM; at hENPP2 [2], 100 to 500 nM.

With `CCc1nc2ccc(C3CCN(CC(=O)N4CC(O)C4)CC3)cn2c1N(C)c1nc(-c2ccc(F)cc2)c(CO)s1` [Compound 156, 2-(4-(2-ethyl-3-((4-(4-fluorophenyl)-5-(hydroxymethyl)thiazol-2-yl)(methyl)amino)imidazo[1,2-a]pyridin-6-yl)piperidin-1-yl)-1-(3-hydroxyazetidin-1-yl)ethanone], the IC50 is more than 1000 nM in the assay on LPA 18:2 in rat plasma, 0.01 to 100 nM on hENPP2 [1] and 500 to 1000 nM against hENPP2 [2].

Consider `CCc1nc2ccc(N3CCN(S(C)(=O)=O)CC3)cn2c1N(C)c1nc(-c2ccc(Cl)cc2)ns1` [Compound 188, 3-(4-chlorophenyl)-N-(2-ethyl-6-(4-(methylsulfonyl)piperazin-1-yl)imidazo[1,2-a]pyridin-3-yl)-N-methyl-1,2,4-thiadiazol-5-amine], for which the IC50 in the assay with LPA 18:2 in rat plasma is more than 1000 nM; on hENPP2 [1], 0.01 to 100 nM; against hENPP2 [2], more than 1000 nM.

As for `CCc1nc2ccc(C3CCN(CC(=O)N4CC[C@@H](O)C4)CC3)cn2c1N(C)c1nc(-c2ccc(F)cc2)c(C#N)s1` [Compound 142, (R)-2-((2-ethyl-6-(1-(2-(3-hydroxypyrrolidin-1-yl)-2-oxoethyl)piperidin-4-yl)imidazo[1,2-a]pyridin-3-yl)(methyl)amino)-4-(4-fluorophenyl)thiazole-5-carbonitrile], the IC50 in the assay with LPA 18:2 in rat plasma and on hENPP2 [2] was 0.01 to 100 nM throughout.

On to `CCc1nc2ccc(N3CCN(CCO)CC3)cn2c1N(C)c1nc(-c2ccc(F)cc2)cs1` [Compound 180, 2-(4-(2-ethyl-3-((4-(4-fluorophenyl)thiazol-2-yl)(methyl)amino)imidazo [1,2-a]pyridin-6-yl)piperazin-1-yl)ethanol], for which the IC50 in the assay with LPA 18:2 in rat plasma was more than 1000 nM; at hENPP2 [1] it was 0.01 to 100 nM; against hENPP2 [2] it was more than 1000 nM.

For `CCc1nc2ccc(C3CCN(CC(=O)N(C)C)CC3)cn2c1N(C)c1nc(-c2ccc(F)cc2)cs1` [Compound 114, 2-(4-(2-ethyl-3-((4-(4-fluorophenyl)thiazol-2-yl)(methyl)amino)imidazo[1,2-a]pyridin-6-yl)piperidin-1-yl)-N,N-dimethylacetamide], the values for the IC50 in the assay on LPA 18:2 in rat plasma, at hENPP2 [1] and against hENPP2 [2] were 500 to 1000 nM, 0.01 to 100 nM and 100 to 500 nM, respectively.

`CCc1nc2ccc(N3CCN(S(=O)(=O)CCCO)CC3)cn2c1N(C)c1nc(-c2ccc(F)cc2)cs1` [Compound 58, 3-(4-(2-ethyl-3-((4-(4-fluorophenyl)thiazol-2-yl)(methyl)amino)imidazo[1,2-a]pyridin-6-yl)piperazin-1-ylsulfonyl)propan-1-ol]: the figures for the 50% inhibitory concentration (IC50) in the assay on LPA 18:2 in rat plasma, on hENPP2 [1] and at hENPP2 [2] were more than 1000 nM, 0.01 to 100 nM and more than 1000 nM, respectively.

Consider `CCC(=O)N1CCC(c2ccc3nc(CC)c(N(C)c4nc(-c5ccc(F)cc5)c(CO)s4)n3c2)CC1` [Compound 154, 1-(4-(2-ethyl-3-((4-(4-fluorophenyl)-5-(hydroxymethyl)thiazol-2-yl)(methyl)amino)imidazo[1,2-a]pyridin-6-yl)piperidin-1-yl)propan-1-one], for which the IC50 with LPA 18:2 in rat plasma was in the range of 500 to 1000 nM; on hENPP2 [2] it was 100 to 500 nM.

For `CCc1nc2ccc(N3CCN(C(=O)C4CCN(C(C)=O)C4)CC3)cn2c1N(C)c1nc(-c2ccc(F)cc2)cs1` (centres unmarked) [Compound 48, 1-{3-[4-(2-Ethyl-3-{[4-(4-fluoro-phenyl)-thiazol-2-yl]-methyl-amino}-imidazo[1,2-a]pyridin-6-yl)-piperazine-1-carbonyl]-pyrrolidin-1-yl}-ethanone], the half-maximal inhibitory concentration (IC50) with LPA 18:2 in rat plasma and on hENPP2 [2] was more than 1000 nM each time.

In the case of `CCc1nc2ccc(C3=CCN(S(C)(=O)=O)CC3)cn2c1N(C)c1nc(-c2ccc(OC(F)(F)F)cc2)cs1` [Compound 72, N-(2-ethyl-6-(1-(methylsulfonyl)-1,2,3,6-tetrahydropyridin-4-yl)imidazo[1,2-a]pyridin-3-yl)-N-methyl-4-(4-(trifluoromethoxy)phenyl)thiazol-2-amine], the IC50 is more than 1000 nM with LPA 18:2 in rat plasma and 100 to 500 nM against hENPP2 [2].

Consider `CCc1nc2ccc(N3CCN(CC(=O)N4CC[C@@H](O)C4)CC3)cn2c1N(C)c1nc(-c2ccc(F)cc2)cs1` [Compound 26, (R)-2-(4-(2-ethyl-3-((4-(4-fluorophenyl)thiazol-2-yl)(methyl)amino)imidazo[1,2-a]pyridin-6-yl)piperazin-1-yl)-1-(3-hydroxypyrrolidin-1-yl)ethanone], for which the IC50 with LPA 18:2 in rat plasma was more than 1000 nM; on hENPP2 [2], 100 to 500 nM.

As to `CN(c1nc(-c2ccc(F)cc2)c(CO)s1)c1c(CCC#N)nc2ccc(C3CCN(S(C)(=O)=O)CC3)cn12` [Compound 175, 3-(3-((4-(4-fluorophenyl)-5-(hydroxymethyl)thiazol-2-yl)(methyl)amino)-6-(1-(methylsulfonyl)piperidin-4-yl)imidazo[1,2-a]pyridin-2-yl)propanenitrile], the IC50 with LPA 18:2 in rat plasma lay within 100 to 500 nM; against hENPP2 [2], 500 to 1000 nM.

In the case of `CCc1nc2ccc(C3CCN(S(=O)(=O)CCCN(C)C)CC3)cn2c1N(C)c1nc(-c2ccc(F)cc2)c(CO)s1` [Compound 149, (2-((6-(1-(3-(dimethylamino)propyl-sulfonyl)piperidin-4-yl)-2-ethylimidazo[1,2-a]pyridin-3-yl)(methyl)amino)-4-(4-fluorophenyl)thiazol-5-yl)], the IC50 with LPA 18:2 in rat plasma was more than 1000 nM; against hENPP2 [2], 100 to 500 nM.
